Assay [1] has as its system S. aureus Human ATCC 25923. Put plainly: MIC determination, S. aureus human ATCC 25923. It counts as cell-based. The note with it: Staphylococcus aureus, ATCC25923; Gram-positive; Mueller-Hinton medium, 24 h at 37° C. An outline of the steps: (§1)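 Broth microdilution in Mueller-Hinton medium; compounds from 5 mg/mL stock in DMSO/methanol (50/50), twofold serial dilutions, inoculum adjusted to OD 0.01. Plates incubated 24 h at 37 °C, humid atmosphere; OD read at 620 nm to derive MIC, duplicates.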

Another assay relates to S. aureus Animal (340). Briefly: MIC determination, S. aureus animal (340). The note with it: Staphylococcus aureus; Gram-positive; Mueller-Hinton medium, 24 h at 37° C. In kind it is cell-based. An outline of the steps:
as §1

The test system of assay [2] is S. intermedius Animal (1051997). Put plainly: MIC determination, S. intermedius animal (1051997). In kind it is cell-based. The note with it: Staphylococcus intermedius; Gram-positive; Mueller-Hinton medium, 24 h at 37° C. An outline of the steps: as §1
Assay [3] deals with E. faecalis Human ATCC 29212. Briefly: MIC determination, E. faecalis human ATCC 29212. Particulars: Enterococcus faecalis, ATCC29212; Gram-positive; Mueller-Hinton medium, 24 h at 37° C. In kind it is cell-based. An outline of the steps: as §1
In a further assay the test system is E. coli Human ATCC 28922. Put plainly: MIC determination, E. coli human ATCC 28922. In kind it is cell-based. The note with it: Escherichia coli, ATCC28922; Gram-negative; Mueller-Hinton medium, 24 h at 37° C. In outline: as §1
In the next assay the test system is E. coli Animal (1956). Put plainly: MIC determination, E. coli animal (1956). It counts as cell-based. The note with it: Escherichia coli; Gram-negative; Mueller-Hinton medium, 24 h at 37° C. An outline of the steps: as §1
The subject of assay [4] is P. aeruginosa Human ATCC 27853. Put plainly: MIC determination, P. aeruginosa human ATCC 27853. It counts as cell-based. The note with it: Pseudomonas aeruginosa, ATCC27853; Gram-negative; Mueller-Hinton medium, 24 h at 37° C. An outline of the steps: as §1
Assay [5] relates to P. aeruginosa Animal (1051575). Put plainly: MIC determination, P. aeruginosa animal (1051575). It counts as cell-based. Particulars: Pseudomonas aeruginosa; Gram-negative; Mueller-Hinton medium, 24 h at 37° C. An outline of the steps:
as §1

The next assay relates to P. aeruginosa (1051575). Put plainly: Potentiation of doxycycline activity (combination MIC). In kind it is cell-based, Pseudomonas aeruginosa. Particulars: in presence of doxycycline 2 μg/mL; 24 hours at 37° C.
A further assay concerns C. albicans. Put plainly: Antifungal activity, cascade microdilution. It counts as cell-based. The note with it: Candida albicans, 24 h, read-out: IC50 (μg/mL) C. albicans.
In a further assay the test system is CHO-K1 cells. Briefly: WST1 cytotoxicity test on CHO-K1 cells. It counts as cell-based, Chinese hamster. Particulars: Cricetulus griseus. An outline of the steps: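 CHO-K1 cells pre-grown 24 h, then exposed to increasing compound concentrations in duplicate for 24 h at 37° C, 5% CO2. Viability read after 20 min with 10% WST-1 in PBS at 450 nm; IC50 from nonlinear regression as concentration cutting viability 50%.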

The mark [6] stands for this setting: CHO-K1, 24 h, read-out: IC50 (μg/mL) CHO.
The mark [7] stands for this setting: CHO-K1, read-out: IC50 (μg/mL) CHO.

SMILES strings stand for the structures. In brackets after ≈: the same amount, converted by molar mass. Like-named read-outs stand apart in the source and are kept apart here.

One may read the MIC as the least concentration at which growth counts as inhibited. A low value points to a more susceptible organism. Regarding `C[C@H](CCC(=O)NC1CCCCC1)[C@H]1CCC2C3C(CC[C@@]21C)[C@@]1(C)CC[C@H](NCCCN(CCCN)CCCN)CC1C[C@H]3O` (stereo partly drawn) [(47), 3β-(tris(3-aminopropyl)amine)-N-cyclohexylchenodeoxycholamide], the MIC in assay [1] turned out to be 4 µg/mL (≈ 6.21 µM); with S. aureus Animal (340) it was 8 µg/mL (≈ 12.4 µM); in assay [2], 8 µg/mL (≈ 12.4 µM); in [3], 8 µg/mL (≈ 12.4 µM); against E. coli Human ATCC 28922 it was 130 µg/mL (≈ 202 µM); against E. coli Animal (1956) it was 32 µg/mL (≈ 49.7 µM). Besides, the MIC in assay [4] turned out to be 130 µg/mL (≈ 202 µM); in assay [5] it was 32 µg/mL (≈ 49.7 µM). Besides, the “MIC - P. aeruginosa (1051575): content of compound of formula (I) to restore the doxycycline activity (at 2 μg/mL)” value (from here on “MIC - P. aeruginosa (1051575): content”) in the assay with P. aeruginosa (1051575) was 2 µg/mL. The IC50 with C. albicans is 2 µg/mL (≈ 3.11 µM).

Consider `CC(C)NC(=O)CC[C@@H](C)[C@H]1CCC2C3C(CC[C@@]21C)[C@@]1(C)CC[C@H](NCCCNCCCCN)CC1C[C@H]3O` (stereo partly drawn) [(52), 3β-spermidino-N-isopropylchenodeoxycholamide], for which the MIC worked out at 7 µg/mL (≈ 12.5 µM) in assay [1]; 4 µg/mL (≈ 7.13 µM) in the assay with S. aureus Animal (340); 2 µg/mL (≈ 3.57 µM) in assay [2]; 14 µg/mL (≈ 25 µM) in [3]; 112 µg/mL (≈ 200 µM) with E. coli Human ATCC 28922; 28 µg/mL (≈ 49.9 µM) against E. coli Animal (1956). The MIC is 56 µg/mL (≈ 99.8 µM) in assay [4] and 112 µg/mL (≈ 200 µM) in assay [5]. Further, the IC50 was determined as 80 µg/mL (≈ 143 µM) in the assay with CHO-K1 cells (setting [6]), 48 µg/mL (≈ 85.6 µM) with CHO-K1 cells (setting [7]) and 4 µg/mL (≈ 7.13 µM) with C. albicans. Moreover, in the assay on P. aeruginosa (1051575), the “MIC - P. aeruginosa (1051575): content” value worked out at 3.5 µg/mL.

As to `CC(C)N(C(=O)CC[C@@H](C)[C@H]1CCC2C3C(CC[C@@]21C)[C@@]1(C)CC[C@H](NCCCN(CCCN)CCCN)CC1C[C@H]3O)C(C)C` (stereo partly drawn) [(56), 3β-(tris(3-aminopropyl)amine)-N,N-diisopropylchenodeoxycholamide], the minimum inhibitory concentration (MIC) in assay [1] is 4 µg/mL (≈ 6.19 µM); against S. aureus Animal (340), 4 µg/mL (≈ 6.19 µM); in assay [2], 4 µg/mL (≈ 6.19 µM); in assay [3], 2 µg/mL (≈ 3.1 µM); in the assay on E. coli Human ATCC 28922, 65 µg/mL (≈ 101 µM); with E. coli Animal (1956), 16 µg/mL (≈ 24.8 µM). Further, the minimal inhibitory concentration (MIC) amounted to 130 µg/mL (≈ 201 µM) in assay [4] and 65 µg/mL (≈ 101 µM) in assay [5]. Further, the “MIC - P. aeruginosa (1051575): content” value in the assay on P. aeruginosa (1051575) was 2 µg/mL. For the same compound, the IC50 with C. albicans was determined as 4 µg/mL (≈ 6.19 µM).

Turning to `CC(C)NC(=O)CC[C@@H](C)[C@H]1CCC2C3CCC4C[C@@H](NCCCNCCCNCCCN)CC[C@]4(C)C3C[C@H](O)[C@@]21C` (stereo partly drawn) [Compound (1), 3β-norspermino-N-isopropyldeoxycholamide], the MIC turned out to be 4 µg/mL (≈ 6.62 µM) in assay [1]; 2 µg/mL (≈ 3.31 µM) with S. aureus Animal (340); 0.5 µg/mL (≈ 0.828 µM) in assay [2]; 8 µg/mL (≈ 13.2 µM) in assay [3]; 8 µg/mL (≈ 13.2 µM) with E. coli Human ATCC 28922; 8 µg/mL (≈ 13.2 µM) in the assay on E. coli Animal (1956). In addition, the MIC in [4] and in assay [5] was 8 µg/mL (≈ 13.2 µM) each time. In addition, the IC50 in the assay on CHO-K1 cells (setting [6]) was determined as 42 µg/mL (≈ 69.5 µM); in the assay on CHO-K1 cells (setting [7]), 33 µg/mL (≈ 54.6 µM); with C. albicans, 0.5 µg/mL (≈ 0.828 µM). In the assay on P. aeruginosa (1051575), the “MIC - P. aeruginosa (1051575): content” value came out at 1 µg/mL.

For `CC(C)NC(=O)CC[C@@H](C)[C@H]1CCC2C3C(CC[C@@]21C)[C@@]1(C)CC[C@H](NCCCNCCCCNCCCN)CC1C[C@H]3O` (stereo partly drawn) [Compound (32), 3β-spermino-N-isopropylchenodeoxycholamide], the MIC in assay [1] worked out at 7 µg/mL (≈ 11.3 µM); with S. aureus Animal (340), 2 µg/mL (≈ 3.24 µM); in [2] it was 0.5 µg/mL (≈ 0.809 µM); in assay [3], 7 µg/mL (≈ 11.3 µM); against E. coli Human ATCC 28922, 15 µg/mL (≈ 24.3 µM); with E. coli Animal (1956), 31 µg/mL (≈ 50.2 µM). For the same compound, the MIC in assay [4] is 30 µg/mL (≈ 48.5 µM); in assay [5], 15 µg/mL (≈ 24.3 µM). Also, the IC50 in the assay on CHO-K1 cells (setting [6]) came out at 34 µg/mL (≈ 55 µM); with CHO-K1 cells (setting [7]), 13 µg/mL (≈ 21 µM); in the assay with C. albicans, 2 µg/mL (≈ 3.24 µM). Besides, the “MIC - P. aeruginosa (1051575): content” value in the assay with P. aeruginosa (1051575) is 1 µg/mL.

Turning to `CCN(CC)C(=O)CC[C@@H](C)[C@H]1CCC2C3C(CC[C@@]21C)[C@@]1(C)CC[C@H](NCCCNCCCCNCCCN)CC1C[C@H]3O` (stereo partly drawn) [Compound (34), 3β-spermino-N,N-diethylchenodeoxycholamide], the MIC is 4 µg/mL (≈ 6.33 µM) in assay [1]; 4 µg/mL (≈ 6.33 µM) in the assay on S. aureus Animal (340); 2 µg/mL (≈ 3.16 µM) in assay [2]; 2 µg/mL (≈ 3.16 µM) in [3]; 8 µg/mL (≈ 12.7 µM) in the assay with E. coli Human ATCC 28922; 8 µg/mL (≈ 12.7 µM) in the assay on E. coli Animal (1956). Further, the MIC in assay [4] and in assay [5] was 16 µg/mL (≈ 25.3 µM) in each case. In addition, the IC50 in the assay with CHO-K1 cells (setting [6]) was found to be 50 µg/mL (≈ 79.1 µM); in the assay on CHO-K1 cells (setting [7]) it was 50 µg/mL (≈ 79.1 µM); in the assay with C. albicans it was 0.5 µg/mL (≈ 0.791 µM). In the assay with P. aeruginosa (1051575), the “MIC - P. aeruginosa (1051575): content” value came to 2 µg/mL.

Source of the values: US10780101B2, “Amide derivatives of squalamine for the treatment of infections” (VIRBAC, priority 2016, dated 2020).
